The compounds below were run against T1, CB1-Receptor (Homo sapiens, UniProt P21554) (assay: In-vitro determination of affinity to CB1 receptor (radioligand [3H]-CP55940 binding)). Conditions: compound at 10^-6 M, transfected human CB1 receptors.
T1 construct: purchased Receptor Biology, Inc
Experimental: The in-vitro determination of the affinity of the inventive substituted pyrazoline compounds to CB1/CB2-receptors is carried out as described in the publication of Ruth A. Ross, Heather C. Brockie et al., "Agonist-inverse agonist characterization at CB1 and CB2 cannabinoid receptors of L-759633, L759656 and AM630", British Journal of Pharmacology, 126, 665-672, (1999), whereby the transfected human CB1 and CB2 receptors of Receptor Biology, Inc. are used. The radioligand used for both receptors is [^3H]-CP55940. The respective parts of the description are hereby incorporated by reference and forms part of the present disclosure.
The affinity of the inventive substituted pyrazoline compounds to CB1/CB2 receptors was determined as described above.

T1 sequence (P21554 whole entry): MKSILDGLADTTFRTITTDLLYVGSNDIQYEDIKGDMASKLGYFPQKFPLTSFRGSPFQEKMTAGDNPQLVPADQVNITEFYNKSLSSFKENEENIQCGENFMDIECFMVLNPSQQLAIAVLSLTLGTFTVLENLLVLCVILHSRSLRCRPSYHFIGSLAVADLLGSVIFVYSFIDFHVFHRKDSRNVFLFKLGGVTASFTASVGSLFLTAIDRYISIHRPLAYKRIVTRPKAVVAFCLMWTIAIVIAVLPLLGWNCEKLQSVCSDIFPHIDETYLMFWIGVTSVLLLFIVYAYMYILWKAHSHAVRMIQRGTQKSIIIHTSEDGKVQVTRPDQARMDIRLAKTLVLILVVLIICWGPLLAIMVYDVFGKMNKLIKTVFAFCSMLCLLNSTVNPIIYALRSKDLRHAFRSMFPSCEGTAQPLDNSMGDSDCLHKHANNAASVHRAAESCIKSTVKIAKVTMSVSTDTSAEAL

Q: CCCCCn1nc(-c2ccccc2)c(-c2ccc(Cl)cc2)n1 [Compound 10a, 4-(p-Chlorophenyl)-2-pentyl-5-phenyl-2H-[1,2,3]triazole] was tested. Which inhibition at 1 µM did it give?
A: 22.8%

Q: With CCCCCn1nnc(-c2ccccc2)c1-c1ccc(Cl)cc1 [Compound 10c, 5-(p-Chlorophenyl)-1-pentyl-4-phenyl-1H-[1,2,3]triazole] as the compound, how does the inhibition at 1 µM read?
A: 21.1%

Q: With CCCCCn1nc(-c2ccc(C)cc2)c(-c2ccc(Cl)cc2Cl)n1 [Compound 11a, 4-(2,4-Dichlorophenyl)-2-pentyl-5-p-tolyl-2H-[1,2,3]triazole] as the compound, how does the inhibition at 1 µM read?
A: 29.8%

Q: Clc1ccc(-c2nn(Cc3ccc(Br)cc3)nc2-c2ccccc2)cc1 [Compound 13a, 2-(p-Bromobenzyl)-4-(p-chlorophenyl)-5-phenyl-2H-[1,2,3]triazole] was tested. Which inhibition at 1 µM did it give?
A: 45.6%

Q: Which inhibition at 1 µM does the source give for Clc1ccc(-c2nnn(Cc3ccccc3)c2-c2ccccc2)cc1 [Compound 14b, 1-Benzyl-4-(p-chlorophenyl)-5-phenyl-1H-[1,2,3]triazole] here?
A: 24.6%

Q: Fc1cc(Br)ccc1-c1cnn(Cc2ccccc2)n1 [Compound 15a, 2-Benzyl-4-(4-bromo-2-fluorophenyl)-2H-[1,2,3]triazole] was tested. Which inhibition at 1 µM did it give?
A: 26.6%

Q: How did the inhibition at 1 µM turn out when Clc1ccc(-c2nn(C3C4CC5CC(C4)CC3C5)nc2-c2ccccc2)cc1 (stereo not shown) [Compound 19a, 2-Adamantyl-4-(p-chlorophenyl)-5-phenyl-2H-[1,2,3]triazole] was run?
A: 23.1%
